Measurements as given in patent publication US10898481B2 (priority 2018, dated 2021).

Columns and labels:
[1] = molecular target: hADORA1/CHO (hA1 expressing) cells (Homo sapiens (Human), UniProt P30542); test: cell-based; conditions: FLIPR inhibition, 10 μM adenosine, read-out: cAMP & FLIPR IC50 (nM) hA1
Experimental: hADORA1/CHO (hA1 expressing) cells (Genscript) were plated at 1×10^4 cells/well into 384-well polystyrene plates one day before starting the experiment. On the day of experiment, the supernatant was discard and replaced with 40 μL of dye (FLIPR calcium 5 Assay Kit) per well and the plates were incubated for 60 mins at 37° C. plus 5% CO2. Then testing compounds were added at different concentrations for FLIPR™ inhibition assay. After a 400s incubation with compound, 10 μM adenosine was added into the cells, and the signal was captured by FLIPR.

hA2a/CHO = hA2a/CHO (Homo sapiens (Human), UniProt P29274); test: cAMP inhibition assay in hA2a/CHO cells, 10 μM adenosine; format: cell-based; conditions: read-out: cAMP & FLIPR IC50 (nM) hA2a;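 further: compounds added to cells 30 min ahead of adenosine, then a further 30 min at 37 °C with adenosine before cAMP detection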
Chain of hA2a/CHO (P29274 whole entry): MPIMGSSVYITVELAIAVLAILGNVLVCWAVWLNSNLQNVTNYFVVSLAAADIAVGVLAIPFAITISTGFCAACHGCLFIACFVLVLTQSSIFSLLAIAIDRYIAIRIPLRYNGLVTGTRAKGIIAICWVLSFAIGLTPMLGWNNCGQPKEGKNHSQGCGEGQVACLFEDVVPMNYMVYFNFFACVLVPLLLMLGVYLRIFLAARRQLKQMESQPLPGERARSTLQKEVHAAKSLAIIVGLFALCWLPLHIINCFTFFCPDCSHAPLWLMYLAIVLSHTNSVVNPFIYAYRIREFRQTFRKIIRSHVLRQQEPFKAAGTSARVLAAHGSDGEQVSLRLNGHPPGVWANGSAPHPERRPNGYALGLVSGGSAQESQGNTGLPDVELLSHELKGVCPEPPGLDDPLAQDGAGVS
Experimental: (§1) hA2a/CHO, hA2b/CHO, hA3/CHO and mA2a/CHO (Genscript) were plated at 5×10^3 cells/well into 384-well polystyrene plates at the day of experiment. Compounds were pre-incubated with cells for 30 min at 37° C., 5% CO2. Then 10 μM adenosine was added to the cells and incubated for 30 min at 37° C., 5% CO2. Detection reagent (CISBIO) was added and the plates were incubated for 60 min at room temperature. The signal was captured by Envision.

hA2b/CHO = hA2b/CHO (Homo sapiens (Human), UniProt P29275); test: cAMP inhibition assay in hA2b/CHO cells, 10 μM adenosine; format: cell-based; conditions: read-out: cAMP & FLIPR IC50 (nM) hA2b;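 further: cells exposed to compound 30 min at 37 °C, then stimulated with adenosine a further 30 min, cAMP read after 60 min at room temperature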
Chain of hA2b/CHO (P29275 whole entry): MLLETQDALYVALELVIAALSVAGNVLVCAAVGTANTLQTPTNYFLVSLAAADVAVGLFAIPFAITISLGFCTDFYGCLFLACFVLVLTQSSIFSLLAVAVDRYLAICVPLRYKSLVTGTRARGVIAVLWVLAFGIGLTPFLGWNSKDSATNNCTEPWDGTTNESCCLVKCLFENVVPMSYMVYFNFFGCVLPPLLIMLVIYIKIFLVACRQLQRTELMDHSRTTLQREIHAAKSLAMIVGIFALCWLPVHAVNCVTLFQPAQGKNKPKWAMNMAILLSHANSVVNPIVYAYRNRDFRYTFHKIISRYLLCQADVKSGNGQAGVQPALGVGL
Experimental: as §1

mA2a/CHO = mA2a/CHO (Mus musculus (Mouse), UniProt Q60613); test: cAMP inhibition assay in mA2a/CHO cells, 10 μM adenosine; format: cell-based; conditions: read-out: cAMP & FLIPR IC50 (nM) mA2a;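 further: compounds preincubated 30 min at 37 °C before the adenosine challenge, then 30 min further stimulation, readout after 60 min detection reagent incubation at room temperature in 384-well plates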
Chain of mA2a/CHO (Q60613 whole entry): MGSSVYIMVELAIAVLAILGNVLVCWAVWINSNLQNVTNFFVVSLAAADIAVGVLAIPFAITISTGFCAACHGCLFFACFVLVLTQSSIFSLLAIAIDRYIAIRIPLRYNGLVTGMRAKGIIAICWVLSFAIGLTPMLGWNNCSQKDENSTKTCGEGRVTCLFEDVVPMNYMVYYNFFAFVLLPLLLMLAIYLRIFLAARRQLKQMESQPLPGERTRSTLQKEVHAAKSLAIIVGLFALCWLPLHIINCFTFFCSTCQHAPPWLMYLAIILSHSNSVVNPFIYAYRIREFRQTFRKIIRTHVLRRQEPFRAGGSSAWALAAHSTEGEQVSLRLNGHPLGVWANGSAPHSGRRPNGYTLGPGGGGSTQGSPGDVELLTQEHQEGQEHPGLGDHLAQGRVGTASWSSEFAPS
Experimental: as §1

Chain of hADORA1/CHO (hA1 expressing) cells (P30542 whole entry): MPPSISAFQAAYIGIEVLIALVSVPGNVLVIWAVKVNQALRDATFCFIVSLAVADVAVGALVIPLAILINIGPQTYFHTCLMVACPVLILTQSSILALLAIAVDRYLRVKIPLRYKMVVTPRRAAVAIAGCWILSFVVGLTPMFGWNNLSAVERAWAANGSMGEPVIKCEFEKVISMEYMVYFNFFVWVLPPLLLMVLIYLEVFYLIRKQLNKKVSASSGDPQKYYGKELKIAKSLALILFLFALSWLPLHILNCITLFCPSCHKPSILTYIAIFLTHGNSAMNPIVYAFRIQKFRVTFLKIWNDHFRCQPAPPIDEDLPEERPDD

Compound	IC50 [1]	IC50 (hA2a/CHO)	IC50 (hA2b/CHO)	IC50 (mA2a/CHO)
Cc1ccn(-c2nc(N)c(C(=O)NC[C@H]3CCCN3C)nc2-c2ccc3ncc(C)n3c2)n1 [Example 201-2, (R)-3-amino-5-(3-methyl-1H-pyrazol-1-yl)-6-(3-methylimidazo[1,2-a]pyridin-6-yl)-N-((1-methylpyrrolidin-2-yl)methyl)pyrazine-2-carboxamide]	> 10000 nM	29 nM	> 10000 nM	519 nM
Nc1nc(-c2ncco2)c(-c2ccc(=O)[nH]c2)nc1C(=O)NCc1c(F)cccc1F [Example 105, 3-amino-N-(2,6-difluorobenzyl)-5-(oxazol-2-yl)-6-(6-oxo-1,6-dihydropyridin-3-yl)pyrazine-2-carboxamide]	3.5 nM	0.1 nM	1.8 nM	0.8 nM
CCNC(=O)c1nc(-c2ccc3ncc(C)n3c2)c(-c2ncco2)nc1N [Example 132, 3-amino-N-ethyl-6-(3-methylimidazo [1,2-a]pyridin-6-yl)-5-(oxazol-2-yl) pyrazine-2-carboxamide]	10000 nM	13 nM	258 nM	65 nM
Cn1cc(-c2nc(C(=O)NCc3ncccc3OC(F)F)c(N)nc2-c2ccc(F)cc2)ccc1=O [Example 58, 3-amino-N-((3-(difluoromethoxy)pyridin-2-yl)methyl)-5-(4-fluorophenyl)-6-(1-methyl-6-oxo-1,6-dihydropyridin-3-yl)pyrazine-2-carboxamide]	18 nM	19 nM	62 nM	81 nM
CCc1cnn2ccc(-c3nc(C(=O)NC[C@@H]4CCCN4C)c(N)nc3-c3ncco3)cc12 [Example 129, (S)-3-amino-6-(3-ethylpyrazolo[1,5-a]pyridin-5-yl)-N-((1-methylpyrrolidin-2-yl)methyl)-5-(oxazol-2-yl)pyrazine-2-carboxamide]	10000 nM	140 nM	≥ 10000 nM	944 nM
Cn1cc(-c2nc(C(=O)NCc3ncccc3CO)c(N)nc2-c2ncco2)ccc1=O [Example 36, 3-amino-N-((3-(hydroxymethyl)pyridin-2-yl)methyl)-6-(1-methyl-6-oxo-1,6-dihydropyridin-3-yl)-5-(oxazol-2-yl)pyrazine-2-carboxamide]	3010 nM	180 nM	2530 nM	419 nM
Cn1cnc2ccc(-c3nc(C(=O)NCc4ncccc4NCCO)c(N)nc3-c3ccc(F)cc3)cc21 [Example 117, 3-amino-5-(4-fluorophenyl)-N-([3-[(2-hydroxyethyl)amino]pyridin-2-yl]methyl)-6-(1-methyl-1H-1,3-benzodiazol-6-yl)pyrazine-2-carboxamide]	64 nM	0.7 nM	146 nM	2.6 nM
Cc1cnc2ccc(-c3nc(C(=O)NC[C@H]4CCN(C(=O)C5CC5)C4)c(N)nc3-c3ncco3)cn12 [Cmpd. 219, 3-amino-N-[[(3R)-1-cyclopropanecarbonylpyrrolidin-3-yl]methyl]-6-[3-methylimidazo[1,2-a]pyridin-6-yl]-5-(1,3-oxazol-2-yl)pyrazine-2-carboxamide]	> 10000 nM	4.9 nM	2300 nM	220 nM
CP(C)(=O)c1cccc(F)c1CNC(=O)c1nc(-c2ccc3nccn3c2)c(-c2ncco2)nc1N [Example 96, 3-amino-N-[[2-(dimethylphosphoryl)-6-fluorophenyl]methyl]-6-[imidazo[1,2-a]pyridin-6-yl]-5-(1,3-oxazol-2-yl)pyrazine-2-carboxamide]	136 nM	2.5 nM	164 nM	7.5 nM
Cc1cnc2ccc(-c3nc(C(=O)NCc4cccc(N[C@H]5C[C@H](N(C)C)C5)n4)c(N)nc3-c3ncco3)cn12 [Cmpd. 227, Trans-3-amino-6-[3-methyl-imidazo[1,2-a]pyridin-6-yl]-5-(1,3-oxazol-2-yl)-N-[(6-[[3-(dimethylamino)cyclobutyl]amino]pyridin-2-yl)methyl]pyrazine-2-carboxamide]	781 nM	4.4 nM	99 nM	24 nM
Cc1cc(-c2nc(C(=O)NCc3c(F)cccc3OC(F)F)c(N)nc2-c2ccc(F)cc2)cc(C)n1 [Example 85, 3-amino-N-(2-(difluoromethoxy)-6-fluorobenzyl)-6-(2,6-dimethylpyridin-4-yl)-5-(4-fluorophenyl)pyrazine-2-carboxamide]	299 nM	2.5 nM	418 nM	36 nM
Cc1cnc2ccc(-c3nc(C(=O)NC[C@H]4CCCO4)c(N)nc3-n3nccn3)cn12 [Cmpd. 229, 3-amino-6-[3-methylimidazo[1,2-a]pyridin-6-yl]-N-[[(2R)-oxolan-2-yl]methyl]-5-(2H-1,2,3-triazol-2-yl)pyrazine-2-carboxamide]	1650 nM	2.4 nM	157 nM	19 nM
Cc1ccc(-c2nc(N)c(CNC(=O)c3c(F)cccc3F)nc2-c2ccc(=O)n(C)c2)o1 [Example 4, N-((3-amino-6-(1-methyl-6-oxo-1,6-dihydropyridin-3-yl)-5-(5-methylfuran-2-yl)pyrazin-2-yl)methyl)-2,6-difluorobenzamide]	18 nM	15 nM	1220 nM	43 nM
Cc1cnc2ccc(-c3nc(C(=O)NCC4COCCO4)c(N)nc3-c3ncco3)cn12 (racemic) [Example 211, rac-N-((1,4-dioxan-2-yl)methyl)-3-amino-6-(3-methylimidazo[1,2-a]pyridin-6-yl)-5-(oxazol-2-yl)pyrazine-2-carboxamide]	319 nM	3.6 nM	160 nM	19 nM
Nc1nc(-c2ncco2)c(-c2ccc(=O)n(C3CC3)c2)nc1C(=O)NCc1c(F)cccc1F [Example 38, 3-amino-6-(1-cyclopropyl-6-oxo-1,6-dihydropyridin-3-yl)-N-[(2,6-difluorophenyl)methyl]-5-(1,3-oxazol-2-yl)pyrazine-2-carboxamide]	61 nM	2.4 nM	59 nM	5.3 nM
Cc1cc(-c2nc(C(=O)NCc3ccccc3F)c(N)nc2-c2ccc(F)cc2)cc(C)n1 [Example 78, 3-amino-6-(2,6-dimethylpyridin-4-yl)-N-(2-fluorobenzyl)-5-(4-fluorophenyl)pyrazine-2-carboxamide]	2730 nM	44 nM	≥ 10000 nM	934 nM
Cc1cnc2ccc(-c3nc(C(=O)N[C@@H]4CCN(C)C4)c(N)nc3-c3ccc(F)cc3)cn12 [Example 144, (R)-3-amino-5-(4-fluorophenyl)-6-(3-methylimidazo[1,2-a]pyridin-6-yl)-N-(1-methylpyrrolidin-3-yl)pyrazine-2-carboxamide]	10000 nM	4.6 nM	1410 nM	61 nM
Cc1cnc2ccc(-c3nc(C(=O)N[C@H]4CCN(C)C4)c(N)nc3-c3ccc(F)cc3)cn12 [Example 200-2, (S)-3-amino-5-(4-fluorophenyl)-6-(3-methylimidazo[1,2-a]pyridin-6-yl)-N-(1-methylpyrrolidin-3-yl)pyrazine-2-carboxamide]	> 10000 nM	12 nM	3540 nM	169 nM
CO[C@H]1C[C@@H](NC(=O)c2nc(-c3ccc4ncc(C)n4c3)c(-c3ncco3)nc2N)C1 [Example 152, 3-amino-N-((1s,3s)-3-methoxycyclobutyl)-6-(3-methylimidazo [1,2-a]pyridin-6-yl)-5-(oxazol-2-yl)pyrazine-2-carboxamide]	10000 nM	5.1 nM	369 nM	43 nM
Cc1cnc2ccc(-c3nc(C(=O)NCC4CCCCO4)c(N)nc3-c3ncco3)cn12 (single isomer, unassigned; isomer 2) [Example 166, 3-amino-6-(3-methylimidazo[1,2-a]pyridin-6-yl)-5-(oxazol-2-yl)-N-((tetrahydro-2H-pyran-2-yl)methyl) pyrazine-2-carboxamide (isomer 2)]	358 nM	0.24 nM	47 nM	1.48 nM
Cc1cnc2ccc(-c3nc(C(=O)NCCC(=O)N(C)C)c(N)nc3-c3ncco3)cn12 [Example 143, 3-amino-N-(3-(dimethylamino)-3-oxopropyl)-6-(3-methylimidazo[1,2-a]pyridin-6-yl)-5-(oxazol-2-yl)pyrazine-2-carboxamide]	180 nM	1.7 nM	162 nM	12 nM
Cc1cnc2ccc(-c3nc(C(=O)NCCn4cccn4)c(N)nc3-c3ncco3)cn12 [Example 158, N-(2-(1H-pyrazol-1-yl)ethyl)-3-amino-6-(3-methylimidazo[1,2-a]pyridin-6-yl)-5-(oxazol-2-yl)pyrazine-2-carboxamide]	756 nM	1.27 nM	167 nM	3.46 nM
CNCCOc1cccnc1CNC(=O)c1nc(-c2ccc3ncc(C)n3c2)c(-c2ccc(F)cc2)nc1N [Cmpd. 199, 3-amino-5-(4-fluorophenyl)-N-([3-[2-(methylamino)ethoxy]pyridin-2-yl]methyl)-6-[3-methylimidazo[1,2-a]pyridin-6-yl]pyrazine-2-carboxamide]	34 nM	0.7 nM	102 nM	1.6 nM
